Reference: ChEMBL document CHEMBL4507297, “Data for DCP probe PF-04457845” (2021)

Legend:
[1] = molecular target: Calcium/calmodulin-dependent protein kinase kinase 1 (Homo sapiens) (UniProt Q8N5S9); settings: Compound concentration 1000.0 nM
[2] = molecular target: Serine/threonine-protein kinase 38-like (Homo sapiens) (UniProt Q9Y2H1); settings: Compound concentration 1000.0 nM
[3] = tested on: Receptor-type tyrosine-protein kinase FLT3 (Homo sapiens), P36888 [K663Q]; settings: Compound concentration 1000.0 nM
[4] = tested on: Phosphatidylinositol 4,5-bisphosphate 3-kinase catalytic subunit alpha isoform (Homo sapiens), P42336 [H1047Y]; settings: Compound concentration 1000.0 nM
[5] = molecular target: Tyrosine-protein kinase SYK (Homo sapiens) (UniProt P43405); settings: Compound concentration 1000.0 nM
[6] = molecular target: Calcium/calmodulin-dependent protein kinase type 1B (Homo sapiens) (UniProt Q6P2M8); settings: Compound concentration 1000.0 nM
[7] = molecular target: Tyrosine-protein kinase ABL2 (Homo sapiens) (UniProt P42684); settings: Compound concentration 1000.0 nM
[8] = molecular target: D(1A) dopamine receptor (Homo sapiens) (UniProt P21728); settings: Compound concentration 10.0 uM
[9] = molecular target: Serine/threonine-protein kinase PAK 1 (Homo sapiens) (UniProt Q13153); settings: Compound concentration 1000.0 nM
[10] = molecular target: Mitogen-activated protein kinase kinase kinase 13 (Homo sapiens) (UniProt O43283); settings: Compound concentration 1000.0 nM
[11] = molecular target: Sodium-dependent serotonin transporter (Homo sapiens) (UniProt P31645); settings: Compound concentration 10.0 uM
[12] = molecular target: Cyclin-dependent kinase 19 (Homo sapiens) (UniProt Q9BWU1); settings: Compound concentration 1000.0 nM
[13] = molecular target: Testis-specific serine/threonine-protein kinase 3 (Homo sapiens) (UniProt Q96PN8); settings: Compound concentration 1000.0 nM
[14] = molecular target: Receptor-interacting serine/threonine-protein kinase 1 (Homo sapiens) (UniProt Q13546); settings: Compound concentration 1000.0 nM
[15] = molecular target: LIM domain kinase 1 (Homo sapiens) (UniProt P53667); settings: Compound concentration 1000.0 nM
[16] = molecular target: Cyclin-dependent kinase 4 (Homo sapiens) (UniProt P11802); settings: Compound concentration 1000.0 nM
[17] = molecular target: Ephrin type-A receptor 6 (Homo sapiens) (UniProt Q9UF33); settings: Compound concentration 1000.0 nM
[18] = molecular target: Platelet-derived growth factor receptor alpha (Homo sapiens) (UniProt P16234); settings: Compound concentration 1000.0 nM
[19] = molecular target: Cyclin-dependent kinase 3 (Homo sapiens) (UniProt Q00526); settings: Compound concentration 1000.0 nM
[20] = molecular target: D(1B) dopamine receptor (Homo sapiens) (UniProt P21918); settings: Compound concentration 10.0 uM
[21] = molecular target: Tyrosine-protein kinase Mer (Homo sapiens) (UniProt Q12866); settings: Compound concentration 1000.0 nM
[22] = tested on: Phosphatidylinositol 4,5-bisphosphate 3-kinase catalytic subunit alpha isoform (Homo sapiens), P42336 [E545A]; settings: Compound concentration 1000.0 nM
[23] = molecular target: Ribosomal protein S6 kinase alpha-3 (Homo sapiens) (UniProt P51812); settings: Compound concentration 1000.0 nM
[24] = molecular target: Serine/threonine-protein kinase PAK 4 (Homo sapiens) (UniProt O96013); settings: Compound concentration 1000.0 nM
[25] = molecular target: Ribosomal protein S6 kinase alpha-6 (Homo sapiens) (UniProt Q9UK32); settings: Compound concentration 1000.0 nM
[26] = molecular target: Myosin light chain kinase, smooth muscle (Homo sapiens) (UniProt Q15746); settings: Compound concentration 1000.0 nM
[27] = molecular target: Serine/threonine-protein kinase pim-2 (Homo sapiens) (UniProt Q9P1W9); settings: Compound concentration 1000.0 nM
[28] = molecular target: Aurora kinase B (Homo sapiens) (UniProt Q96GD4); settings: Compound concentration 1000.0 nM
[29] = molecular target: Tyrosine-protein kinase receptor TYRO3 (Homo sapiens) (UniProt Q06418); settings: Compound concentration 1000.0 nM
[30] = molecular target: Mitogen-activated protein kinase 14 (Homo sapiens) (UniProt Q16539); settings: Compound concentration 1000.0 nM
[31] = molecular target: Fibroblast growth factor receptor 4 (Homo sapiens) (UniProt P22455); settings: Compound concentration 1000.0 nM
[32] = molecular target: Eukaryotic translation initiation factor 2-alpha kinase 1 (Homo sapiens) (UniProt Q9BQI3); settings: Compound concentration 1000.0 nM
[33] = molecular target: Cyclin-dependent kinase 15 (Homo sapiens) (UniProt Q96Q40); settings: Compound concentration 1000.0 nM
[34] = molecular target: Tyrosine-protein kinase Fyn (Homo sapiens) (UniProt P06241); settings: Compound concentration 1000.0 nM
[35] = molecular target: Serine/threonine-protein kinase 16 (Homo sapiens) (UniProt O75716); settings: Compound concentration 1000.0 nM
[36] = molecular target: Platelet-derived growth factor receptor beta (Homo sapiens) (UniProt P09619); settings: Compound concentration 1000.0 nM
[37] = tested on: Hepatocyte growth factor receptor (Homo sapiens), P08581 [M1250T]; settings: Compound concentration 1000.0 nM
[38] = molecular target: Serine/threonine-protein kinase BRSK1 (Homo sapiens) (UniProt Q8TDC3); settings: Compound concentration 1000.0 nM
[39] = molecular target: Serine/threonine-protein kinase ULK3 (Homo sapiens) (UniProt Q6PHR2); settings: Compound concentration 1000.0 nM
[40] = molecular target: Homeodomain-interacting protein kinase 3 (Homo sapiens) (UniProt Q9H422); settings: Compound concentration 1000.0 nM
[41] = molecular target: Mitogen-activated protein kinase 12 (Homo sapiens) (UniProt P53778); settings: Compound concentration 1000.0 nM
[42] = molecular target: Mitogen-activated protein kinase kinase kinase kinase 1 (Homo sapiens) (UniProt Q92918); settings: Compound concentration 1000.0 nM
[43] = molecular target: Cyclin-G-associated kinase (Homo sapiens) (UniProt O14976); settings: Compound concentration 1000.0 nM
[44] = molecular target: Ephrin type-B receptor 3 (Homo sapiens) (UniProt P54753); settings: Compound concentration 1000.0 nM
[45] = molecular target: Cyclin-dependent kinase 17 (Homo sapiens) (UniProt Q00537); settings: Compound concentration 1000.0 nM

Chain of Cyclin-G-associated kinase (Homo sapiens) (O14976 whole entry): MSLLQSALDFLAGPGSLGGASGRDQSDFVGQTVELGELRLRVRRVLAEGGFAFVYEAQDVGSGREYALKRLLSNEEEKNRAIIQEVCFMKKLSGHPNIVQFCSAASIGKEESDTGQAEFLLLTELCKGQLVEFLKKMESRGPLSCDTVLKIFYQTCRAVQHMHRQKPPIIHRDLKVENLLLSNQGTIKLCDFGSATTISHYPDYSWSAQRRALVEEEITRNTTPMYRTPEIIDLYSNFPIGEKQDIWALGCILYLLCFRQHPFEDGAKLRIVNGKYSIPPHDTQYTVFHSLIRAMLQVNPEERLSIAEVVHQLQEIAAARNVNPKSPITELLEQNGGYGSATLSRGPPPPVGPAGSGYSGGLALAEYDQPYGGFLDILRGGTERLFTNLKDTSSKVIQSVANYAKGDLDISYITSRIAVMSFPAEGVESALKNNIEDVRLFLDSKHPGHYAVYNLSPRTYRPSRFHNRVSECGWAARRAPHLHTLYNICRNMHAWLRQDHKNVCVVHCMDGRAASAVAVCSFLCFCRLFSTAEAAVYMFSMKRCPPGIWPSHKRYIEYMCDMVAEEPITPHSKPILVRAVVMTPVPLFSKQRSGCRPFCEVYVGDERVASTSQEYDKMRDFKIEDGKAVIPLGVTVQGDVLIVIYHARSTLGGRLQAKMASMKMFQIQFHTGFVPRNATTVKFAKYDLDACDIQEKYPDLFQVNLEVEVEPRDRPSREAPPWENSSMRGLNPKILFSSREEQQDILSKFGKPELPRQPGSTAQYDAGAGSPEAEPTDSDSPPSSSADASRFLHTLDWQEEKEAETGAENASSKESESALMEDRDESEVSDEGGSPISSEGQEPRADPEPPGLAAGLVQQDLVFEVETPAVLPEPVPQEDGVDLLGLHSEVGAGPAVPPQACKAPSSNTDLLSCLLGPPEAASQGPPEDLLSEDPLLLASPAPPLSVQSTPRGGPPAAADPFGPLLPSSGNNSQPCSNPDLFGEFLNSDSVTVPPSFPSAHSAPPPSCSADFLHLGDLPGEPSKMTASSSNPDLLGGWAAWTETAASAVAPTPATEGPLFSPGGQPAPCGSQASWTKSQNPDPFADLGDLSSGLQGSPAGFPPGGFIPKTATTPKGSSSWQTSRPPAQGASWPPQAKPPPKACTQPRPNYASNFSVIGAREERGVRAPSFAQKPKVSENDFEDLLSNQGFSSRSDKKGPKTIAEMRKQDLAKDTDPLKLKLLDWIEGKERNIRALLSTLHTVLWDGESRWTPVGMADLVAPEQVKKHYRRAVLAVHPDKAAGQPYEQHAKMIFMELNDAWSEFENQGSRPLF
Chain of LIM domain kinase 1 (Homo sapiens) (P53667 whole entry, looked up, the tested form may be a part): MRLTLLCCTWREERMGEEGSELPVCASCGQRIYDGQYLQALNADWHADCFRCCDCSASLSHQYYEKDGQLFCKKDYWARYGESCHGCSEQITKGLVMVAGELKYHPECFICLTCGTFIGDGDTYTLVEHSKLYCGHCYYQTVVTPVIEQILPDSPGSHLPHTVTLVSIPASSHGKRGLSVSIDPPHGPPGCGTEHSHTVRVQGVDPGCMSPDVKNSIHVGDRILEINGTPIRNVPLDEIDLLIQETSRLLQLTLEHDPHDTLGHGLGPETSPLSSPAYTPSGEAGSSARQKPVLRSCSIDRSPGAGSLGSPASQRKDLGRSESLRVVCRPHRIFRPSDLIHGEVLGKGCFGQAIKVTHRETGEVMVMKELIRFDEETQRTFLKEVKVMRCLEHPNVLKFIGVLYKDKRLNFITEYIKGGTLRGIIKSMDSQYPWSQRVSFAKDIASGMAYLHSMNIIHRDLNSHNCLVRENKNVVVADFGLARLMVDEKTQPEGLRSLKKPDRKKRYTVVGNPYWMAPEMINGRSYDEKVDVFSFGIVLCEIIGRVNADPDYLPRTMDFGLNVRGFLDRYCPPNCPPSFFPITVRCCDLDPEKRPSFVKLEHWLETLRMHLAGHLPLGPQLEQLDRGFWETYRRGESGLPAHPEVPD
Chain of Calcium/calmodulin-dependent protein kinase type 1B (Homo sapiens) (Q6P2M8 whole entry): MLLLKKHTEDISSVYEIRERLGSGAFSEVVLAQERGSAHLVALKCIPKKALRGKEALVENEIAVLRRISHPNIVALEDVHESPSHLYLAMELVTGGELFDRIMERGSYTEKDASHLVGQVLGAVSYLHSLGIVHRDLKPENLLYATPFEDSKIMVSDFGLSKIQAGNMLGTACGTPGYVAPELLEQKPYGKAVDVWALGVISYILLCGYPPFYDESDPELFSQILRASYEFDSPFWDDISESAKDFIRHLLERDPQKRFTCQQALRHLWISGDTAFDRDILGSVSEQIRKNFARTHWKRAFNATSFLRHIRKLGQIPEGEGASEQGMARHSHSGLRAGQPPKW
Chain of Serine/threonine-protein kinase BRSK1 (Homo sapiens) (Q8TDC3 whole entry): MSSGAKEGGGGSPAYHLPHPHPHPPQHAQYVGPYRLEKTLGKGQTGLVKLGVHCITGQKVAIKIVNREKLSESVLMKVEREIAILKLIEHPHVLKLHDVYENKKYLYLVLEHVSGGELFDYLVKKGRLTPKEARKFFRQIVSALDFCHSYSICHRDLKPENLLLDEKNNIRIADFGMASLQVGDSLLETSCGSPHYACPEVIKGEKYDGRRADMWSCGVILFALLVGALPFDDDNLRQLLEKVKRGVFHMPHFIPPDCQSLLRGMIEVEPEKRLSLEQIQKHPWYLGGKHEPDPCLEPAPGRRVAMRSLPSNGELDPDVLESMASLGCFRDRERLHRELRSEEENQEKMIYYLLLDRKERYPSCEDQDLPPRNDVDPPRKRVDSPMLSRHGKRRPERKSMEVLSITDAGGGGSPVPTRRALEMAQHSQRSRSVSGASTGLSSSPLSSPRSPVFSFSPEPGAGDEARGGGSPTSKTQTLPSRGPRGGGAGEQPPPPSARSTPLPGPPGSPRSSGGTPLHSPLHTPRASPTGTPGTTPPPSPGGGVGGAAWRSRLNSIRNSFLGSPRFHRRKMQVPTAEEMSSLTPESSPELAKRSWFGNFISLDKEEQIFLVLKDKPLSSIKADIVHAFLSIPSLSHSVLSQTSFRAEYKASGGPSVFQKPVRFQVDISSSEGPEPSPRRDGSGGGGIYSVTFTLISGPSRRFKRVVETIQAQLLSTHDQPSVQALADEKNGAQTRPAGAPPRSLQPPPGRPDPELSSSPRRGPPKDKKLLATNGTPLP
Chain of Cyclin-dependent kinase 15 (Homo sapiens) (Q96Q40 whole entry): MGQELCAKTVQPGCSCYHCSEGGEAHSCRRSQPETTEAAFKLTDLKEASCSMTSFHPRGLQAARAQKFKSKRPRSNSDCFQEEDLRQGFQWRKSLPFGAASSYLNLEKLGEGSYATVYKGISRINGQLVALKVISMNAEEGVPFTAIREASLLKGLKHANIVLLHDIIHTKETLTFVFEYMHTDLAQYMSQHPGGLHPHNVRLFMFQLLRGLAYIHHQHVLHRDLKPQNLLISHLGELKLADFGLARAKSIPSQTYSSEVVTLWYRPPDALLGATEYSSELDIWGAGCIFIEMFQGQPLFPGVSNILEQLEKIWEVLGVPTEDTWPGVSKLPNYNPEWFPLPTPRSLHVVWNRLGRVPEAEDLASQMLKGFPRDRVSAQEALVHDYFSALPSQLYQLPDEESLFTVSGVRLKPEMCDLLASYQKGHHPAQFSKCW
Chain of Mitogen-activated protein kinase 12 (Homo sapiens) (P53778 whole entry): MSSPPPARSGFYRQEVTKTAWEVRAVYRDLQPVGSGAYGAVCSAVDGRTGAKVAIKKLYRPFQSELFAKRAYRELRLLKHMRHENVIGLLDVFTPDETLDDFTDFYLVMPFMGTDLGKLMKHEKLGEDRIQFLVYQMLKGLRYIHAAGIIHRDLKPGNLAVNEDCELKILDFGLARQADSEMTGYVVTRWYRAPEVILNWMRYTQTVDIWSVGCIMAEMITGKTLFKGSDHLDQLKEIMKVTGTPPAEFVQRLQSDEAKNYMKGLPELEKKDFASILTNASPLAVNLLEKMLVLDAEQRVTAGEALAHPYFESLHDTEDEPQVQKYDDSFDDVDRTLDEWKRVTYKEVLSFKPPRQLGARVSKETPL
Chain of Receptor-interacting serine/threonine-protein kinase 1 (Homo sapiens) (Q13546 whole entry, the tested form may be a part): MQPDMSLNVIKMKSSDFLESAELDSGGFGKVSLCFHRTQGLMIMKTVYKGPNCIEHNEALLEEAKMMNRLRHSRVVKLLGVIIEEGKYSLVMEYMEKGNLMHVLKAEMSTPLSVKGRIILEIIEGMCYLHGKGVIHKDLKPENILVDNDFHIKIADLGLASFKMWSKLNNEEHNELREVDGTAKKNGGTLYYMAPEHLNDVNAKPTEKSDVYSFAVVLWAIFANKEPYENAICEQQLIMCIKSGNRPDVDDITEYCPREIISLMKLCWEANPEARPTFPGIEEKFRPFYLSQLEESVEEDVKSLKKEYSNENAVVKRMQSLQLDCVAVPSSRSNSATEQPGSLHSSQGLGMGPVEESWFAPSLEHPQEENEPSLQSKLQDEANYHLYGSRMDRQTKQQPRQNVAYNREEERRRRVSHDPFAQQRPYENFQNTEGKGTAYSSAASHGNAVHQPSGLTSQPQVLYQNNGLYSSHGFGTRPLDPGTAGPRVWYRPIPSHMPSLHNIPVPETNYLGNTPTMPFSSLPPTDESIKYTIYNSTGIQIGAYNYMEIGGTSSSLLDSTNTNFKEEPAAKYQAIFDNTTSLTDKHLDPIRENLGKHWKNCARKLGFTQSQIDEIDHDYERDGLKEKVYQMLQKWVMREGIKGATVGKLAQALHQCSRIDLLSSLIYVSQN
Chain of Serine/threonine-protein kinase 16 (Homo sapiens) (O75716 whole entry): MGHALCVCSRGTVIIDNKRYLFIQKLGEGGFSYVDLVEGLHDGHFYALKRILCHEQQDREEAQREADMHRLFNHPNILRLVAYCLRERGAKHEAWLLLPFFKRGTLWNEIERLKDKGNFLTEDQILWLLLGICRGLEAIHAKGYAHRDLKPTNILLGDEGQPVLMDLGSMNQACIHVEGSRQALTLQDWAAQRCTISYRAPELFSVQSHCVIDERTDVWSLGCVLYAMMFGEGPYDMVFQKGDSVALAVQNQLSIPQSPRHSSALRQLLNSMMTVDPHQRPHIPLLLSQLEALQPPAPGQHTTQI

## O=C(Nc1cccnn1)N1CC(C/C=C/c2cncc(Oc3ccc(C(F)(F)F)cn3)n2)C1
[1]
  residual activity: 100%
[2]
  residual activity: 100%
[3]
  residual activity: 100%
[4]
  residual activity: 100%
[5]
  residual activity: 100%
[6]
  residual activity: 63%
[7]
  residual activity: 100%
[8]
  inhibition: 1.14%
[9]
  residual activity: 90%
[10]
  residual activity: 0%
[11]
  inhibition: 32.7%
[12]
  residual activity: 84%
[13]
  residual activity: 98%
[14]
  residual activity: 100%
[15]
  residual activity: 88%
[16]
  residual activity: 86%
[17]
  residual activity: 100%
[18]
  residual activity: 80%
[19]
  residual activity: 100%
[20]
  inhibition: 4.5%
[21]
  residual activity: 100%
[22]
  residual activity: 75%
[23]
  residual activity: 73%
[24]
  residual activity: 96%
[25]
  residual activity: 80%
[26]
  residual activity: 73%
[27]
  residual activity: 100%
[28]
  residual activity: 59%
[29]
  residual activity: 100%
[30]
  residual activity: 100%
[31]
  residual activity: 100%
[32]
  residual activity: 100%
[33]
  residual activity: 100%
[34]
  residual activity: 100%
[35]
  residual activity: 98%
[36]
  residual activity: 81%
[37]
  residual activity: 100%
[38]
  residual activity: 100%
[39]
  residual activity: 82%
[40]
  residual activity: 74%
[41]
  residual activity: 100%
[42]
  residual activity: 98%
[43]
  residual activity: 100%
[44]
  residual activity: 100%
[45]
  residual activity: 100%

## O=C(Nc1cccnn1)N1CCC(=Cc2cccc(Oc3ccc(C(F)(F)F)cn3)c2)CC1
[1]
  residual activity: 92%
[2]
  residual activity: 84%
[3]
  residual activity: 100%
[4]
  residual activity: 82%
[5]
  residual activity: 100%
[6]
  residual activity: 100%
[7]
  residual activity: 99%
[8]
  inhibition: -3.23%
[9]
  residual activity: 72%
[10]
  residual activity: 100%
[11]
  inhibition: 20.2%
[12]
  residual activity: 100%
[13]
  residual activity: 100%
[14]
  residual activity: 97%
[15]
  residual activity: 88%
[16]
  residual activity: 100%
[17]
  residual activity: 78%
[18]
  residual activity: 100%
[19]
  residual activity: 100%
[20]
  inhibition: 29.3%
[21]
  residual activity: 81%
[22]
  residual activity: 100%
[23]
  residual activity: 100%
[24]
  residual activity: 77%
[25]
  residual activity: 100%
[26]
  residual activity: 100%
[27]
  residual activity: 97%
[28]
  residual activity: 100%
[29]
  residual activity: 100%
[30]
  residual activity: 100%
[31]
  residual activity: 100%
[32]
  residual activity: 100%
[33]
  residual activity: 100%
[34]
  residual activity: 100%
[35]
  residual activity: 90%
[36]
  residual activity: 97%
[37]
  residual activity: 100%
[38]
  residual activity: 73%
[39]
  residual activity: 100%
[40]
  residual activity: 100%
[41]
  residual activity: 100%
[42]
  residual activity: 80%
[43]
  residual activity: 100%
[44]
  residual activity: 81%
[45]
  residual activity: 100%
